Test systems include OVCAR-5 ovarian; SNB-19 CNS; MOLT-4 leukemia; U251 CNS; NCI-H522 lung; HOP-62 NSCLC; OVCAR-4 ovarian; MDA-MB-231 breast; HS 578T breast; SK-OV-3 ovarian.
Experiment in all cases: growth of human tumour cells (NCI), 48 h

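Method: 48-hour compound exposure of cells in 96-well plates, five concentrations, linear interpolation of endpoints. Here, GI50 denotes the concentration required for 50% inhibition of growth. Definition used: TGI = concentration required for complete inhibition of growth.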

With `CCCc1cc(O)c2c3c(c(=O)oc2c1)CN(C)CC3`, the GI50 is over 100 µM in the experiment on OVCAR-5 ovarian; over 100 µM in the experiment on SNB-19 CNS; 44.3 µM in the experiment with MOLT-4 leukemia; 56.4 µM in the experiment on U251 CNS; 45.1 µM with NCI-H522 lung; 67.1 µM in the experiment with HOP-62 NSCLC. For the same compound, the GI50 with OVCAR-4 ovarian is 82.8 µM; in the experiment with MDA-MB-231 breast, 35 µM; in the experiment with HS 578T breast it was 41.3 µM; with SK-OV-3 ovarian it was 85 µM. Besides, the TGI with OVCAR-5 ovarian, in the experiment with SNB-19 CNS, in the experiment with MOLT-4 leukemia, in the experiment on U251 CNS, in the experiment with NCI-H522 lung and in the experiment with HOP-62 NSCLC was over 100 µM in each case. The TGI with OVCAR-4 ovarian, with MDA-MB-231 breast, in the experiment with HS 578T breast and in the experiment with SK-OV-3 ovarian was over 100 µM in each case.

For `CCOC(=O)c1sc2ncn(Cc3cccc(Br)c3)c(=O)c2c1C`, the GI50 with OVCAR-5 ovarian is over 100 µM; in the experiment on SNB-19 CNS, over 100 µM; with MOLT-4 leukemia, 25.3 µM; in the experiment on U251 CNS, 31.7 µM; in the experiment on NCI-H522 lung it was 9.7 µM; in the experiment with HOP-62 NSCLC it was 19.4 µM. The GI50 in the experiment with OVCAR-4 ovarian was 30.9 µM; in the experiment on MDA-MB-231 breast, 12.5 µM; with HS 578T breast, 38.6 µM; in the experiment on SK-OV-3 ovarian, over 100 µM. In addition, the TGI was over 100 µM in the experiment with OVCAR-5 ovarian; over 100 µM in the experiment on SNB-19 CNS; over 100 µM with MOLT-4 leukemia; over 100 µM with U251 CNS; 65.8 µM with NCI-H522 lung; 65.4 µM in the experiment with HOP-62 NSCLC. Besides, the TGI in the experiment on OVCAR-4 ovarian was 81.3 µM; in the experiment on MDA-MB-231 breast, 74.8 µM; in the experiment with HS 578T breast it was over 100 µM; in the experiment on SK-OV-3 ovarian, over 100 µM.

On to `CCOc1ccc(-c2cnnn2-c2nonc2-n2cccc2)cc1`, for which the GI50 in the experiment on OVCAR-5 ovarian was 1.08 µM; in the experiment with SNB-19 CNS it was 0.729 µM; in the experiment with MOLT-4 leukemia it was 0.51 µM; in the experiment with U251 CNS, 0.339 µM; with NCI-H522 lung, 0.121 µM; in the experiment on HOP-62 NSCLC, 0.421 µM. The GI50 in the experiment with OVCAR-4 ovarian is 0.655 µM; in the experiment with MDA-MB-231 breast, 0.337 µM; with HS 578T breast it was 0.229 µM; in the experiment with SK-OV-3 ovarian, 0.274 µM. Moreover, the TGI in the experiment on OVCAR-5 ovarian was over 100 µM; in the experiment with SNB-19 CNS, over 100 µM; with MOLT-4 leukemia, 31.7 µM; with U251 CNS, over 78.7 µM; with NCI-H522 lung, 0.531 µM; with HOP-62 NSCLC it was over 100 µM. The TGI is over 100 µM in the experiment with OVCAR-4 ovarian, 5.03 µM in the experiment on MDA-MB-231 breast, 0.873 µM in the experiment with HS 578T breast and 1.02 µM in the experiment with SK-OV-3 ovarian.

As to `C#CCN(Cc1nc2cc(C(F)(F)F)ccc2nc1-c1ccccc1)c1ccc(OC(F)(F)F)cc1`, the GI50 is over 100 µM in the experiment on OVCAR-5 ovarian; over 100 µM in the experiment with SNB-19 CNS; 32.2 µM in the experiment with MOLT-4 leukemia; 48.8 µM in the experiment on U251 CNS; 16.6 µM in the experiment on NCI-H522 lung; over 100 µM with HOP-62 NSCLC. Further, the GI50 in the experiment on OVCAR-4 ovarian was over 100 µM; in the experiment on MDA-MB-231 breast, 28.4 µM; with HS 578T breast, over 100 µM; in the experiment with SK-OV-3 ovarian, over 100 µM. In addition, the TGI was over 100 µM in the experiment on OVCAR-5 ovarian; over 100 µM with SNB-19 CNS; over 100 µM with MOLT-4 leukemia; over 100 µM in the experiment on U251 CNS; 54.6 µM with NCI-H522 lung; over 100 µM in the experiment on HOP-62 NSCLC. For the same compound, the TGI in the experiment on OVCAR-4 ovarian, in the experiment on MDA-MB-231 breast, in the experiment with HS 578T breast and with SK-OV-3 ovarian was over 100 µM each time.

For `O=C(Nc1ccccc1)c1nn(-c2cc(S(=O)(=O)O)c([N+](=O)[O-])cc2Cl)[n+](-c2cc(S(=O)(=O)[O-])c([N+](=O)[O-])cc2Cl)n1`, the TGI in the experiment on OVCAR-5 ovarian, in the experiment with SNB-19 CNS, with MOLT-4 leukemia, in the experiment on U251 CNS, in the experiment with NCI-H522 lung and in the experiment with HOP-62 NSCLC was over 100 µM throughout. Besides, the TGI with OVCAR-4 ovarian was over 100 µM; in the experiment on MDA-MB-231 breast, 94 µM; with HS 578T breast, over 100 µM; in the experiment with SK-OV-3 ovarian, over 100 µM.

Turning to `Cc1nc(-c2ccccc2)c(Cc2ccccc2O)c(=O)[nH]1`, the TGI with OVCAR-5 ovarian, in the experiment on SNB-19 CNS, in the experiment with MOLT-4 leukemia, in the experiment on U251 CNS, with NCI-H522 lung and in the experiment with HOP-62 NSCLC was over 100 µM each time. Besides, the TGI in the experiment with OVCAR-4 ovarian, in the experiment with MDA-MB-231 breast, in the experiment on HS 578T breast and in the experiment with SK-OV-3 ovarian was over 100 µM in each case.

As to `N#Cc1cccc(OCc2nc(N)nc(N)c2-c2ccc(Cl)c(Cl)c2)c1`, the GI50 in the experiment with OVCAR-5 ovarian is 6.87 µM; in the experiment with SNB-19 CNS it was 4.28 µM; in the experiment with MOLT-4 leukemia, 2.83 µM; in the experiment with U251 CNS it was 0.749 µM; with NCI-H522 lung, 5.62 µM; in the experiment with HOP-62 NSCLC, 4.44 µM. The GI50 with OVCAR-4 ovarian is over 100 µM; in the experiment with MDA-MB-231 breast, 6.13 µM; in the experiment on HS 578T breast, 4.41 µM; in the experiment on SK-OV-3 ovarian, 9.56 µM. Moreover, the TGI with OVCAR-5 ovarian, in the experiment with SNB-19 CNS, in the experiment with MOLT-4 leukemia, in the experiment on U251 CNS, with NCI-H522 lung and in the experiment on HOP-62 NSCLC was over 100 µM throughout. The TGI in the experiment on OVCAR-4 ovarian, in the experiment on MDA-MB-231 breast, with HS 578T breast and in the experiment with SK-OV-3 ovarian was over 100 µM in each case.

Values taken from PubChem BioAssay (NCI).
